Where two headings read alike, the source gives them in different places.
Key:
[1] = molecular target: T1, FAK (Homo sapiens, UniProt Q05397); assay: FAK-HiBiT Degradation Assay; type: cell-based; details: for DC50 / EC50: JHH-4-FAK-HiBiT clone d01 cells, two hours incubation, 10-point dose response, 3-fold dilution starting at 1 μM, Nano-Glo HiBiT luminescence; for DC50: read-out: FAK HiBiT EC50; for FAK HiBiT Ymin: lower limit of the four parameter fit (value A), Ymax derived using DMSO control, JHH-4-FAK-HiBiT cells, two hours
T1 construct: homozygous knock-in of a HiBiT tag (Promega Corporation, Madison, WI) to the C-terminus of the FAK gene in its natural genomic locus; endogenous in cells; host or cells: JHH-4-FAK-HiBiT clone d01 (CRISPR-Cas9 knock-in at the endogenous locus)
T1 sequence (Q05397 whole entry): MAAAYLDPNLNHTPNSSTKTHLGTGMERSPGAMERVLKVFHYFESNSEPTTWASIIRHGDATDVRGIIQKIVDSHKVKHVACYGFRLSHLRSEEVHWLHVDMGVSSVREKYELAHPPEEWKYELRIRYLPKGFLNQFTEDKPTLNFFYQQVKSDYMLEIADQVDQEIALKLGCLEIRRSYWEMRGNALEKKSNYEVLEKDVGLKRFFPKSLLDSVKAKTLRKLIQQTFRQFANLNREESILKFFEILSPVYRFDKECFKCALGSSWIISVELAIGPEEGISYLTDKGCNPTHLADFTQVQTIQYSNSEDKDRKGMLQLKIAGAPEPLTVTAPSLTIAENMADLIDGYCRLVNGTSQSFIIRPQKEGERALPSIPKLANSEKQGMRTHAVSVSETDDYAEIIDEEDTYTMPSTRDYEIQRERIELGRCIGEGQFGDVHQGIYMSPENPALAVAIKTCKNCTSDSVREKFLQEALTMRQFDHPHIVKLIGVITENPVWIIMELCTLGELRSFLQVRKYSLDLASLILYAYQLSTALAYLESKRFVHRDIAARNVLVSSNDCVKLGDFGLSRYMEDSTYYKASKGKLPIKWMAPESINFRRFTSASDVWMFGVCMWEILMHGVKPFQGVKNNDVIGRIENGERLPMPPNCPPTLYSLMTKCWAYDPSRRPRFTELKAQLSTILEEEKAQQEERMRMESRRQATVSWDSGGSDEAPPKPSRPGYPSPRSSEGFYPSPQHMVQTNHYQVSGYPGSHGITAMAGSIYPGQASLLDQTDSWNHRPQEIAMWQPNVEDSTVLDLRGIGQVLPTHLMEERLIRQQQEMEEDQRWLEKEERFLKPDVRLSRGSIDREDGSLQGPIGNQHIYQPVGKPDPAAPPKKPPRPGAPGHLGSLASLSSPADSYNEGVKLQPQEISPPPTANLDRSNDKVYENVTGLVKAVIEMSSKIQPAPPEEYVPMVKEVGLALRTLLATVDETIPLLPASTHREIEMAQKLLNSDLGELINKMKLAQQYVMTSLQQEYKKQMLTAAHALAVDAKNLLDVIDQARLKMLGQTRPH
Procedure, shortened: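 Degradation read out by HiBiT lytic luminescence after 2 h compound exposure (top concentration 1 μM, 3-fold, 10 points) in JHH-4 clone d01 bearing endogenous FAK-HiBiT knock-in. Four-parameter logistic fit gave EC50 and Ymin; DMSO wells defined Ymax.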

[2] = tested on: CAL-51 cells; assay: CAL-51 Cell Proliferation Assay; type: cell-based; details: for EC50: 120 hours incubation, 10-point dose response, 4-fold dilutions starting at 10 μM, Cell-Titer-Glo, read-out: CAL-51 Prolif EC50; for CAL-51 Prolif Ymin: minimal percent of DMSO control observed in the concentrations tested (Ymin-obs), 120 hours
Procedure, shortened: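 EC50 comes from a four-parameter logistic fit of blank-corrected, DMSO-normalised CellTiter-Glo signal after 120 h growth (37 °C, 350 cells/well, RPMI complete medium). Compounds ran as 10-point 4-fold series starting at 10 μM, duplicate, 0.1% DMSO. Ymin-obs records the minimal percent of DMSO control observed.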

Row | Compound | DC50 [1] | FAK HiBiT Ymin [1] | EC50 ([2]; Homo sapiens) | CAL-51 Prolif Ymin [2] | EC50 [1] | EC50 [2]
1 | O=C1CCC(N2Cc3cc(Cn4cnc5c(-c6ccc(C(F)(F)F)cc6Cl)cc(N6CC(F)C6)nc54)ccc3C2=O)C(=O)N1 (centres unmarked) [Example 19, 3-(5-((7-(2-chloro-4-(trifluoromethyl)phenyl)-5-(3-fluoroazetidin-1-yl)-3H-imidazo[4,5-b]pyridin-3-yl)methyl)-1-oxoisoindolin-2-yl)piperidine-2,6-dione] | 0.86 nM | 8.55 | 0.38 nM | 23.48 |  | 
2 | Cc1nc2c(-c3ccc(F)cc3F)cc(N3CC(F)C3)nc2n1Cc1ccc2c(c1)CN(C1CCC(=O)NC1=O)C2=O (centres unmarked) [Example 23, 3-(5-((7-(2,4-difluorophenyl)-5-(3-fluoroazetidin-1-yl)-2-methyl-3H-imidazo[4,5-b]pyridin-3-yl)methyl)-1-oxoisoindolin-2-yl)piperidine-2,6-dione] | 1.03 nM | 7.69 | 0.62 nM | 20.44 |  | 
3 | CN(c1cc(-c2ncc(C(F)(F)F)cc2Cl)c2cnn(Cc3ccc4c(c3)CN([C@H]3CCC(=O)NC3=O)C4=O)c2n1)C1CC(O)C1 (stereo partly drawn) [Example 64, (3S)-3-[5-({4-[3-chloro-5-(trifluoromethyl)pyridin-2-yl]-6-{methyl[(1s,3s)-3-hydroxycyclobutyl]amino}-1H-pyrazolo[3,4-b]pyridin-1-yl}methyl)-1-oxo-2,3-dihydro-1H-isoindol-2-yl]piperidine-2,6-dione] |  | 9.77 |  | 32.02 | 4.29 nM | 2.32 nM
4 | O=C1CC[C@H](N2Cc3cc(Cn4ncc5c(-c6ccc(F)cc6F)cc(N6CC(F)C6)nc54)ccc3C2=O)C(=O)N1 [Example 30, (3S)-3-(5-{[4-(2,4-difluorophenyl)-6-(3-fluoroazetidin-1-yl)-1H-pyrazolo[3,4-b]pyridin-1-yl]methyl}-1-oxo-2,3-dihydro-1H-isoindol-2-yl)piperidine-2,6-dione] | 0.72 nM | 7.40 | 0.77 nM | 26.67 |  | 
5 | CN(C)c1cc(-c2ncc(C#N)cc2Cl)c2c(n1)N(Cc1ccc3c(c1)CN(C1CCC(=O)NC1=O)C3=O)CC2 (centres unmarked) [Example 14, 5-chloro-6-(6-(dimethylamino)-1-((2-(2,6-dioxopiperidin-3-yl)-1-oxoisoindolin-5-yl)methyl)-2,3-dihydro-1H-pyrrolo[2,3-b]pyridin-4-yl)nicotinonitrile] |  | 7.20 |  | 23.56 | 14.6 nM | 5.06 nM
6 | O=C1CCC(N2Cc3cc(Cn4ncc5c(-c6ncc(C(F)(F)F)cc6Cl)cc(N6CC(F)C6)cc54)ccc3C2=O)C(=O)N1 (centres unmarked) [Example 26, 3-(5-((4-(3-chloro-5-(trifluoromethyl)pyridin-2-yl)-6-(3-fluoroazetidin-1-yl)-1H-indazol-1-yl)methyl)-1-oxoisoindolin-2-yl)piperidine-2,6-dione] | 8.5 nM | 11.53 | 2.32 nM | 24.69 |  | 
7 | O=C1CCC(N2Cc3cc(Cn4ccc5c(-c6ncc(F)cc6Cl)cc(N6CC(F)C6)nc54)ccc3C2=O)C(=O)N1 (centres unmarked) [Example 17, 3-(5-((4-(3-chloro-5-fluoropyridin-2-yl)-6-(3-fluoroazetidin-1-yl)-1H-pyrrolo[2,3-b]pyridin-1-yl)methyl)-1-oxoisoindolin-2-yl)piperidine-2,6-dione] | 3.36 nM | 7.42 | 3.46 nM | 28.46 |  | 

More lines, main results first:

Row | DC50 [1] | FAK HiBiT Ymin [1] | Compound | EC50 ([2]; Homo sapiens) | CAL-51 Prolif Ymin [2] | EC50 [1] | EC50 [2]
8 | 1.15 nM | 6.87 | O=C1CCC(N2Cc3c(ccc(Cn4ncc5c(-c6ncc(C(F)(F)F)cc6Cl)cc(N6CC(F)C6)nc54)c3F)C2=O)C(=O)N1 (centres unmarked) [Example 40, 3-[5-({4-[3-chloro-5-(trifluoromethyl)pyridin-2-yl]-6-(3-fluoroazetidin-1-yl)-1H-pyrazolo[3,4-b]pyridin-1-yl}methyl)-4-fluoro-1-oxo-2,3-dihydro-1H-isoindol-2-yl]piperidine-2,6-dione] | 11.2 nM | 36.00 |  | 
9 | 1.22 nM | 10.49 | N#Cc1ccc(-c2c(F)c(N3CC(F)C3)nc3c2cnn3Cc2ccc3c(c2)CN(C2CCC(=O)NC2=O)C3=O)c(F)c1 (centres unmarked) [Example 41, 4-(1-{[2-(2,6-dioxopiperidin-3-yl)-1-oxo-2,3-dihydro-1H-isoindol-5-yl]methyl}-5-fluoro-6-(3-fluoroazetidin-1-yl)-1H-pyrazolo[3,4-b]pyridin-4-yl)-3-fluorobenzonitrile] | 1.23 nM | 26.68 |  | 
10 | ≥ 1000 nM | 82.45 | O=C1CCC(N2Cc3cc(Cn4ncc5c(-c6ncc(C(F)(F)F)cc6Cl)cc(N[C@@H]6CCOC6)nc54)ccc3C2=O)C(=O)N1 (stereo partly drawn) [Example 133, 3-[5-({4-[3-chloro-5-(trifluoromethyl)pyridin-2-yl]-6-{[(3R)-oxolan-3-yl]amino}-1H-pyrazolo[3,4-b]pyridin-1-yl}methyl)-1-oxo-2,3-dihydro-1H-isoindol-2-yl]piperidine-2,6-dione] | 23.3 nM | 84.63 |  | 
11 | 169 nM | 89.33 | O=C1CCC(N2Cc3cc(Cn4ncc5c(-c6ncc(C(F)(F)F)cc6Cl)cc(NC6COC6)nc54)ccc3C2=O)C(=O)N1 (centres unmarked) [Example 126, 3-[5-({4-[3-chloro-5-(trifluoromethyl)pyridin-2-yl]-6-[(oxetan-3-yl)amino]-1H-pyrazolo[3,4-b]pyridin-1-yl}methyl)-1-oxo-2,3-dihydro-1H-isoindol-2-yl]piperidine-2,6-dione] | 0.47 nM | 91.32 |  | 
12 | 149 nM | 29.00 | Cc1cc(F)cnc1-c1cc(N2CC[C@H](O)C2)nc2c1cnn2Cc1ccc2c(c1)CN([C@H]1CCC(=O)NC1=O)C2=O [Example 125, (3S)-3-(5-{[4-(5-fluoro-3-methylpyridin-2-yl)-6-[(3S)-3-hydroxypyrrolidin-1-yl]-1H-pyrazolo[3,4-b]pyridin-1-yl]methyl}-1-oxo-2,3-dihydro-1H-isoindol-2-yl)piperidine-2,6-dione] | 262 nM | 34.48 |  | 
13 | 87.1 nM | 12.66 | CN(c1cc(-c2ncc(C(F)(F)F)cc2Cl)c2cnn(Cc3ccc4c(c3)CN([C@H]3CCC(=O)NC3=O)C4=O)c2n1)[C@H]1C[C@@H](O)C1 [Example 120, (3R)-3-[5-({4-[3-chloro-5-(trifluoromethyl)pyridin-2-yl]-6-{methyl[(1s,3s)-3-hydroxycyclobutyl]amino}-1H-pyrazolo[3,4-b]pyridin-1-yl}methyl)-1-oxo-2,3-dihydro-1H-isoindol-2-yl]piperidine-2,6-dione] | 3.03 nM | 28.57 |  | 
14 | 4.47 nM | 17.03 | O=C1CCC(N2Cc3cc(Cn4ncc5c(-c6ncc(F)cc6F)cc(N6CC(F)C6)nc54)ccc3C2=O)C(=O)N1 (centres unmarked) [Example 65, 3-(5-{[4-(3,5-difluoropyridin-2-yl)-6-(3-fluoroazetidin-1-yl)-1H-pyrazolo[3,4-b]pyridin-1-yl]methyl}-1-oxo-2,3-dihydro-1H-isoindol-2-yl)piperidine-2,6-dione] | 1.89 nM | 36.07 |  | 
15 | 292 nM | 58.00 | CN1CCC(Nc2cc(-c3ncc(C(F)(F)F)cc3Cl)c3cnn(Cc4ccc5c(c4)CN(C4CCC(=O)NC4=O)C5=O)c3n2)C1 (centres unmarked) [Example 128, 3-[5-({4-[3-chloro-5-(trifluoromethyl)pyridin-2-yl]-6-[(1-methylpyrrolidin-3-yl)amino]-1H-pyrazolo[3,4-b]pyridin-1-yl}methyl)-1-oxo-2,3-dihydro-1H-isoindol-2-yl]piperidine-2,6-dione] | 191 nM | 83.49 |  | 
16 | 1.73 nM | 11.00 | CCOc1cnc(-c2cc(N3CC(F)C3)nc3c2cnn3Cc2ccc3c(c2)CN(C2CCC(=O)NC2=O)C3=O)c(Cl)c1 (centres unmarked) [Example 44, 3-(5-{[4-(3-chloro-5-ethoxypyridin-2-yl)-6-(3-fluoroazetidin-1-yl)-1H-pyrazolo[3,4-b]pyridin-1-yl]methyl}-1-oxo-2,3-dihydro-1H-isoindol-2-yl)piperidine-2,6-dione] | 0.69 nM | 28.22 |  | 
17 | 51.9 nM | 47.34 | O=C1CC[C@H](N2Cc3cc(Cn4ncc5c(-c6ncc(C(F)(F)F)cc6Cl)cc(N6CC[C@H](CCO)C6)nc54)ccc3C2=O)C(=O)N1 [Example 145, (S)-3-(5-((4-(3-chloro-5-(trifluoromethyl)pyridin-2-yl)-6-((R)-3-(2-hydroxyethyl)pyrrolidin-1-yl)-1H-pyrazolo[3,4-b]pyridin-1-yl)methyl)-1-oxoisoindolin-2-yl)piperidine-2,6-dione] | 74.8 nM | 66.44 |  | 
